Data from US12655116B2, “Substituted isophthalic acid diamides” (Bayer Aktiengesellschaft, priority 2020, dated 2026).

Columns and labels:
[1] = test system: SETVI; assay: Post-emergence herbicidal action against SETVI; type: in vivo, Setaria viridis; details: Setaria viridis, 504 h
Outline: (§1)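 Greenhouse pot plants in sandy loam were sprayed at the one-leaf stage, 2 to 3 weeks after sowing, with WP or EC formulations as aqueous suspension or emulsion (600 to 800 l/ha water, 0.2% wetting agent). About 3 weeks later, damage was scored visually against untreated controls as % action (100% = dead, 0% = like control).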

[2] = test system: PHBPU; assay: Post-emergence herbicidal action against PHBPU; type: in vivo, Pharbitis purpurea
Outline: as §1

[3] = test system: ABUTH; assay: Pre-emergence herbicidal action against ABUTH; type: in vivo, Abutilon theophrasti
Outline: (§2)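 Visual rating at 3 weeks vs untreated pots; 0–100% scale, 100% = plants died. Treatment: aqueous WP/EC spray onto covering soil, 600–800 l/ha, 0.2% wetter, seeds in sandy loam.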

[4] = test system: ECHCG; assay: Post-emergence herbicidal action against ECHCG; type: in vivo, Echinochloa crus-galli
Outline: as §1

[5] = test system: VIOTR; assay: Pre-emergence herbicidal action against VIOTR; type: in vivo, Viola tricolor; details: Viola tricolor, 504 h
Outline: as §2

[6] = test system: VERPE; assay: Pre-emergence herbicidal action against VERPE; type: in vivo, Veronica persica; details: dosage 80 g/ha
Outline: as §2

[7] = test system: VIOTR; assay: Post-emergence herbicidal action against VIOTR; type: in vivo, Viola tricolor; details: Viola tricolor, 504 h
Outline: as §1

[8] = test system: AVEFA; assay: Pre-emergence herbicidal action against AVEFA; type: in vivo, Avena fatua
Outline: as §2

[9] = test system: AMARE; assay: Post-emergence herbicidal action against AMARE; type: in vivo, Amaranthus retroflexus; details: 20 g/ha, visual assessment about 3 weeks after treatment, 100% = plants have died, 0% = like control plants
Outline: as §1

[10] = test system: VERPE; assay: Post-emergence herbicidal action against VERPE; type: in vivo, Veronica persica; details: Veronica persica, 504 h, 20 g/ha
Outline: as §1

[11] = test system: LOLRI; assay: Pre-emergence herbicidal action against LOLRI; type: in vivo, Lolium rigidum
Text: Seeds of monocotyledonous and dicotyledonous weed plants and crop plants are laid out in sandy loam soil in wood-fiber pots and covered with soil. The compounds of the invention, formulated in the form of wettable powders (WP) or as emulsion concentrates (EC), are then applied to the surface of the covering soil in the form of an aqueous suspension or emulsion at a water application rate equivalent to 600 to 800 l/ha, with addition of 0.2% wetting agent. After the treatment, the pots are placed in a greenhouse and kept under good growth conditions for the trial plants. The damage to the test plants is scored visually after a test period of 3 weeks by comparison with untreated controls (herbicidal activity in percent (%): 100% activity=the plants have died, 0% activity=like control plants). […] The tables below illustrate, in an illustrative manner, the post-emergence herbicidal action of the compounds of the invention, the herbicidal activity being stated in percent.

[12] = test system: ECHCG; assay: Pre-emergence herbicidal action against ECHCG; type: in vivo, Echinochloa crus-galli
Outline: as §2

[13] = test system: ALOMY; assay: Pre-emergence herbicidal action against ALOMY; type: in vivo, Alopecurus myosuroides; details: pre-emergence
Outline: as §2

[14] = test system: ALOMY; assay: Post-emergence herbicidal action against ALOMY; type: in vivo, Alopecurus myosuroides; details: Alopecurus myosuroides, 504 h, dosage 20 g/ha, visual assessment about 3 weeks after treatment vs untreated controls
Outline: as §1

[15] = test system: AMARE; assay: Pre-emergence herbicidal action against AMARE; type: in vivo, Amaranthus retroflexus; details: 80 g/ha
Outline: as §2

[16] = test system: SETVI; assay: Pre-emergence herbicidal action against SETVI; type: in vivo, Setaria viridis; details: Setaria viridis, 504 h, dosage 80 g/ha
Outline: as §2

[17] = test system: MATIN; assay: Post-emergence herbicidal action against MATIN; type: in vivo, Matricaria inodora
Outline: as §1

[18] = test system: MATIN; assay: Pre-emergence herbicidal action against MATIN; type: in vivo, Matricaria inodora
Outline: as §2

[19] = test system: ABUTH; assay: Post-emergence herbicidal action against ABUTH; type: in vivo, Abutilon theophrasti; details: visual assessment about 3 weeks after treatment vs untreated controls
Outline: as §1

[20] = test system: DIGSA; assay: Pre-emergence herbicidal action against DIGSA; type: in vivo, Digitaria sanguinalis; details: dosage 80 g/ha
Outline: as §2

[21] = test system: DIGSA; assay: Post-emergence herbicidal action against DIGSA; type: in vivo, Digitaria sanguinalis; details: 20 g/ha
Outline: as §1

[22] = test system: PHBPU; assay: Pre-emergence herbicidal action against PHBPU; type: in vivo, Pharbitis purpurea; details: dosage 80 g/ha
Outline: as §2

[23] = Tripleurospermum inodorum, 504 h, dosage 20 g/ha
[24] = 80 g/ha, scored visually after 3 weeks vs untreated controls (100% = plants have died, 0% = like control plants)

CSc1c(C(=O)Nc2nnnn2C)ccc(C(F)(F)F)c1C(=O)NC1CC1 [Example 1-83]
80%: pest or weed control at 5 g/ha ([1]; dosage 5 g/ha) | pest or weed control at 80 g/ha ([6]; Veronica persica, 504 h) | pest or weed control at 80 g/ha ([8]; Avena fatua, 504 h, 80 g/ha, pre-emergence) | pest or weed control at 80 g/ha ([11]; Lolium rigidum, 504 h, 80 g/ha) | pest or weed control at 20 g/ha ([13]; Alopecurus myosuroides, 504 h, 20 g/ha, scored visually after 3 weeks, 100% = plants have died, 0% = like control plants) | pest or weed control at 5 g/ha ([17]; Tripleurospermum inodorum, 504 h, dosage 5 g/ha)
100%: pest or weed control at 20 g/ha ([1]; dosage 20 g/ha) | pest or weed control at 80 g/ha ([3]; Abutilon theophrasti, 504 h, 80 g/ha, scored visually after 3 weeks vs untreated controls (100% = plants have died, 0% = like control plants)) | pest or weed control at 20 g/ha ([3]; Abutilon theophrasti, 504 h, dosage 20 g/ha, scored visually after 3 weeks vs untreated controls, 100% = plants have died, 0% = like control plants, read-out: Pre-emergence action against ABUTH (herbicidal activity in percent)) | pest or weed control at 80 g/ha ([5]; dosage 80 g/ha) | pest or weed control at 20 g/ha ([9]; Amaranthus retroflexus, 504 h) | pest or weed control at 80 g/ha ([13]; Alopecurus myosuroides, 504 h, 80 g/ha, scored visually after 3 weeks vs untreated controls (100% = plants have died, 0% = like control plants)) | pest or weed control at 20 g/ha [14] | pest or weed control at 80 g/ha ([15]; Amaranthus retroflexus, 504 h, scored visually after 3 weeks vs untreated controls, 100% = plants have died, 0% = like control plants) | pest or weed control at 80 g/ha [16] | pest or weed control at 80 g/ha ([18]; Tripleurospermum inodorum, 504 h, dosage 80 g/ha)
90%: pest or weed control at 20 g/ha ([2]; Ipomoea purpurea, 504 h, dosage 20 g/ha) | pest or weed control at 20 g/ha ([4]; Echinochloa crus-galli, 504 h, dosage 20 g/ha) | pest or weed control at 20 g/ha ([5]; dosage 20 g/ha) | pest or weed control at 5 g/ha ([7]; 5 g/ha) | pest or weed control at 20 g/ha ([7]; 20 g/ha) | pest or weed control at 20 g/ha [10] | pest or weed control at 80 g/ha ([12]; Echinochloa crus-galli, 504 h, 80 g/ha) | pest or weed control at 20 g/ha [17, 23] | pest or weed control at 20 g/ha [18, 23] | pest or weed control at 5 g/ha ([19]; Abutilon theophrasti, 504 h, dosage 5 g/ha) | pest or weed control at 20 g/ha ([19]; Abutilon theophrasti, 504 h, dosage 20 g/ha)

Cn1nnnc1NC(=O)c1ccc(C(F)F)c(C(=O)NC2CCC2)c1Cl [Example 1-164]
90%: Post-emergence action against PHBPU in % ([2]; dosage 5 g/ha) | Post-emergence action against PHBPU in % ([2]; dosage 20 g/ha) | Post-emergence action against ECHCG in % ([4]; dosage 20 g/ha) | Pre-emergence action against VERPE in % [6] | Post-emergence action at 20 g/ha against AMARE in % [9]
80%: Pre-emergence action against ABUTH (herbicidal activity) [3, 24] | Pre-emergence action against ABUTH (herbicidal activity in percent) ([3]; dosage 20 g/ha, scored visually after 3 weeks vs untreated controls, 100% = plants have died, 0% = like control plants) | Pre-emergence action against DIGSA in % [20] | Post-emergence action against ECHCG in % ([4]; dosage 5 g/ha) | Post-emergence action against DIGSA [21] | Post-emergence action against MATIN in % ([17]; dosage 5 g/ha) | Post-emergence action against MATIN in % ([17]; dosage 20 g/ha) | Post-emergence action against ABUTH in % ([19]; dosage 5 g/ha) | Post-emergence action against ABUTH in % ([19]; dosage 20 g/ha)
100%: Pre-emergence action against AVEFA ([8]; 20 g/ha, scored visually after 3 weeks, 100% = plants have died, 0% = like control plants) | Pre-emergence action against AVEFA in % ([8]; 80 g/ha, pre-emergence) | Pre-emergence action against LOLRI in % ([11]; 20 g/ha) | Pre-emergence action against LOLRI in % ([11]; 80 g/ha) | Pre-emergence action against ECHCG in % ([12]; 20 g/ha) | Pre-emergence action against ECHCG in % ([12]; 80 g/ha) | Pre-emergence action against ALOMY (herbicidal activity) [13, 24] | Pre-emergence action against AMARE in % ([15]; scored visually after 3 weeks vs untreated controls (100% = plants have died, 0% = like control plants)) | Pre-emergence action against MATIN in % ([18]; dosage 80 g/ha) | Pre-emergence action against PHBPU in % [22]
